# According to US8735071B2, “Compositions for promoting epigenetic DNA demethylation and methods of use therefore” (The Johns Hopkins University, priority 2008, dated 2014):
# Columns and labels:
# Gadd45b expression = Gadd45b expression in cultured primary hippocampal neurons by Q-PCR; type: cell-based, mice; conditions: for K^+-induced Gadd45b expression: pretreated 0.5 hr, then K^+ (50 mM) for 1 hr, BAPTA 50 μM, Nimodipin 10 μM, KN93 or KN92 10 μM, FIG. 5B; for Gadd45b expression: agent alone, K^+ 50 mM, APV 200 μM, bicuculline 50 μM, FIG. 5A, 5C
# Text: (§1) Dentate gyrus tissue was rapidly micro-dissected from adult WT mice, or with ECT, spatial exploration or running. […] For gene expression analysis, total RNA fraction was immediately isolated after dissection (Qiagen), treated with DNAase and reverse-transcribed into the first-strand cDNA (Invitrogen). Specific primers (listed in Table 1) were used in SYBR-green based quantitative real-time PCR to measure the expression level of target genes with the ΔΔT method (ABI). Most primers were designed to span introns to further prevent genomic DNA amplification during the PCR reaction.
# Primary hippocampal neurons were prepared from hippocampi of P0 mice and plated on poly-lysine coated coverslips in Neurobasal-A medium supplemented with B27 (Invitrogen) as previously described (H. Song, C. F. Stevens, F. H. Gage, Nature 417, 39 (2002)). AraC (5 μM) was added to eliminate proliferating cells. One-week old culture was used for all experiments. For pharmacological experiments, cultures were pretreated with the following inhibitors 30 minutes before stimulation with K^+ (50 mM) or glutamate (20 μM) for 1 hr: BAPTA (50 μM), Nimodipin (10 μM), APV (200 μM), bicuculline (50 μM), KN92 or KN93 (10
# adult neural progenitors = assay: Proliferation of adult hippocampal neural progenitors in culture; type: cell-based, rat; conditions: FGF-1 0, 2, 5, 10 and 20 ng/ml versus FGF-2 20 ng/ml; cell number at 4 days in vitro; FIG. 23
# Procedure: Established neural progenitors from adult rat hippocampus were cultured as monolayer as previously described (H. Song, C. F. Stevens, F. H. Gage, Nature 417, 39 (2002).). They were maintained on laminin and polyornithine-coated dishes in DMEM/F12 medium containing N2 supplement, L-glutamine (2 mM) and FGF-2 (20 ng/ml). Cultures were passaged for expansion when reaching 70% confluence. For FGF-1 experiments, early-passage, monolayer adherent cultures were plated at the clonal density in the presence of various concentration of FGF-1 or FGF-2 (PeproTech). At 4 days in vitro, cultures were fixed and cell numbers from each condition were determined by counting from randomly selected fields of 4 different biological replicates.
# Arc = conditions: CPP 10 mg/kg i.p. at 1 hr before ECT; 1 hr after ECT; FIG. 2E
# Procedure: (§2) Electroconvulsive treatment (ECT) was administered with pulses consisted of 1.0 s, 100 Hz, 18 mA stimulus of 0.3 ms delivered using the Ugo Basile ECT unit (Model 57800) as previously described (A. J. Cole, Neurochem 55, 1920 (1990)). […] S ham animals were similarly handled in parallel without the current delivery. In some experiments, ±3-(2-carboxypiperazin-4-yl)-propyl-1-phosphonic acid (CPP, 10 mg/kg body weight, i.p.), was injected at 1 hr before ECT. Potential damaging responses after ECT was examined by Western blot and immunostaining of the activated form of caspase (Caspase 3-a; Rabbit; 1:500; Cell Signaling) and phospho-ATM (Ataxia telangiectasia mutated kinase; mouse; Millipore) (3).
# as §1
# Gadd45b = conditions: CPP 10 mg/kg i.p. at 1 hr before ECT; 1 hr after ECT; FIG. 2E
# Procedure: as §2, §1
Compound,K^+-induced Gadd45b expression (Gadd45b expression),Gadd45b expression (Gadd45b expression; glutamate 20 μM),also measured
COCCOC(=O)C1=C(C)NC(C)=C(C(=O)OC(C)C)C1c1cccc([N+](=O)[O-])c1 (centres unmarked) [Nimodipin],abolished,–,–
[Cl-].[K+] [K^+],–,significant increase,–
O=C(O)CN(CC(=O)O)c1ccccc1OCCOc1ccccc1N(CC(=O)O)CC(=O)O [BAPTA],abolished,–,–
FGF-1: fibroblast growth factor-1 (PeproTech),–,–,mitogenic activity on neural progenitor proliferation in vitro (adult neural progenitors): robust mitogenic activity
N[C@@H](CCC(=O)O)C(=O)O [glutamate],–,induced,–
COc1ccc(S(=O)(=O)N(CCO)c2ccccc2CN(C)C/C=C/c2ccc(Cl)cc2)cc1 [KN93],abolished,–,–
"O=C(O)C1CN(CCCP(=O)(O)O)CCN1 (racemic) [CPP, ±3-(2-carboxypiperazin-4-yl)-propyl-1-phosphonic acid]",–,–,ECT-induced Arc expression (Arc): abolished; ECT-induced Gadd45b expression (Gadd45b): abolished
N[C@@H](CCCP(=O)(O)O)C(=O)O [APV],–,significantly decreased,"glutamate-induced Gadd45b expression (Gadd45b expression; APV 200 μM pre-treatment, glutamate 20 μM, FIG. 5C): blocked"
COc1ccc(S(=O)(=O)Nc2ccccc2CN(C)C/C=C/c2ccc(Cl)cc2)cc1 [KN92],not,–,–
